Test results from patent publication US9006221B2, “Method of modulating ship activity” (H. Lee Moffitt Cancer Center and Reserach Institute, Inc., priority 2008, dated 2015).

System: priming of allogeneic T cell responses
Test: MLR with splenocytes from inhibitor-treated mice as stimulators
Type: in vivo, mouse
Description: FACS quantitation of Mac1^+Gr1^+ MIR cells in spleen (A) and lymph node (B) of C57BL/6 mice treated with the SHIP1 inhibitor (Compound), vehicle (Vehicle) or unmanipulated controls (Normal) as indicated. (C) Mixed-Leukocyte-Reactions (MLR) where splenocytes from SHIP1 inhibitor-treated C57BL6 (H2b) mice were used as stimulators for BALB/C (H2d) responders. In parallel splenocytes from either unmanipulated (Normal) or Vehicle treated C57BL6 mice were used as positive controls for the MLR. […] (D) Human PBMC were pre-treated for 24 hr with 3α-aminocholestane (Compound) or vehicle, irradiated and then used as stimulators for untreated PBMC from a different donor in a one-way MLR. [BALB/C=responder splenocytes not mixed with BL6 stimulators; Stim=irradiated, SHIP1 inhibitor-treated human PBMC absent responder PBMC; Resp=human PBMC responders absent allogeneic stimulators; Media, media to which only [3H]thymidine was added]. […] (E) SHIP1 inhibition increases circulating granulocyte/neutrophil numbers. Mice were treated daily for 7 days with 60 μM SHIP1 inhibitor (Compound), its vehicle (Vehicle) or were unmanipulated (Normal). Absolute peripheral blood granulocyte numbers were determined by an automated blood cell analyzer. […]

SMILES	allogeneic T cell priming by splenocytes from treated mice (splenocytes from three NSC13480 treated mice as stimulators, MHC mismatched responders)	ability of splenocytes from treated mice to stimulate allogeneic T cell responses (H2b mice treated daily i.p. 60 μM for 7 days, H2d responder splenocytes)
OC(c1cc(-c2ccccc2)nc2c1ccc1ccccc12)C1CCCCN1 (centres unmarked) [NSC13480, (2-phenylbenzo[h]quinolin-4-yl)-piperidin-2-ylmethanol]	profound inhibition	
CC(C)CCC[C@@H](C)[C@H]1CC[C@H]2[C@@H]3CC[C@H]4C[C@H](N)CC[C@]4(C)[C@H]3CC[C@]12C [NSC23922, (3R,5S,8R,9S,10S,13R,14S,17R)-10,13-dimethyl-17-[(2R)-6-methylheptan-2-yl]-2,3,4,5,6,7,8,9,11,12,14,15,16,17-tetradecahydro-1H-cyclopenta[a]phenanthren-3-amine]		profoundly impaired
